Assay results reported in patent US20250032524A1, “BROAD SPECTRUM AMINOGLYCOSIDES AND USES THEREOF” (REVAGENIX, INC., priority 2022, published 2025).
Read-outs that look alike come from different tables or passages of the source.

Columns and labels:
Assay type in all cases: cell-based
[1] = tested on: clinical isolates of multi-drug resistant bacterial pathogens including A. baumannii, MRSA, P. aeruginosa, and CRE; test: MIC secondary panel, overall statement; conditions: read-out: minimum inhibitory concentration (MIC) values
Method: (§1) Minimum inhibitory concentrations for representative example compounds herein were determined by a broth microdilution method in accordance with the Clinical and Laboratory Standards Institute (CLSI) guidelines. In brief, organism suspensions were adjusted to a 0.5 McFarland standard to yield a final inoculum between 3×10^5 and 7×10^5 colony-forming units (CFU)/mL. The inoculum was prepared by suspension of a colony from an agar plate that was prepared the previous day. Compound dilutions and inoculum were prepared in sterile, cation adjusted Mueller-Hinton Broth (Beckton Dickinson).
(§2) Bacteria were suspended in sterile saline and added to each assay plate to obtain a final concentration of 5×10^5 CFU/mL. An inoculum volume of 100 μL was added to wells containing 100 μL of broth with 2-fold serial dilutions of the test compound. All inoculated microdilution trays were incubated in ambient air at 35° C. for 18-24 hours. Following incubation, the lowest concentration of the compound that prevented visible growth (OD 600 nm<0.05) is recorded was the MIC. […] Performance of the assay was monitored by the use of laboratory quality-control strains and a standard compound with a defined MIC spectrum (neomycin), in accordance with CLSI guidelines.
Several compounds of the disclosure (Compounds 1, 2, 3, and 6) were further evaluated against a secondary panel of clinical isolates of multi-drug resistant bacterial pathogens including A. baumannii, methicillin-resistant Staphylococcus aureus (MRSA), P. aeruginosa, and carbapenem-resistant Enterobacteriaceae (CRE).

S. aureus = test: MIC broth microdilution (CLSI); conditions: for MIC: Staphylococcus aureus
Method: as §1, §2

P. aeruginosa = test: MIC broth microdilution (CLSI); conditions: Pseudomonas aeruginosa
Method: as §1, §2

E. cloacae = test: MIC broth microdilution (CLSI); conditions: Enterobacter cloacae; strain AECL1089, MDR Clinical isolate (CDC CRE panel), CDC AR Bank 0154
Method: as §1, §2

K. pneumoniae = test: MIC broth microdilution (CLSI)
Method: as §1, §2

A. baumannii = test: MIC broth microdilution (CLSI); conditions: Acinetobacter baumannii
Method: as §1, §2

E. coli = test: MIC broth microdilution (CLSI); conditions: Escherichia coli
Method: as §1, §2

SMILES: C[C@H](N)[C@@H]1CC[C@@H](N)[C@@H](O[C@@H]2[C@@H](N)[C@H](O)[C@@H](NC(=O)[C@@H](O)CCN)[C@H](O)[C@H]2O[C@@H]2O[C@H](CO)[C@@H](O[C@H]3O[C@@H](CN)[C@@H](O)[C@H](O)[C@H]3N)[C@H]2O)O1 [Compound 6, (S)-4-Amino-N-((1R,2S,3S,4R,5R,6S)-3-Amino-4-(((2R,3R,6S)-3-Amino-6-((S)-1-Aminoethyl)Tetrahydro-2H-Pyran-2-Yl)Oxy)-5-(((2S,3R,4S,5R)-4-(((2R,3R,4R,5S,6S)-3-Amino-6-(Aminomethyl)-4,5-Dihydroxytetrahydro-2H-Pyran-2-Yl)Oxy)-3-Hydroxy-5-(Hydroxymethyl)Tetrahydrofuran-2-Yl)Oxy)-2,6-Dihydroxycyclohexyl)-2-Hydroxybutanamide]
- MIC [1]: ≤ 16 µg/mL
- MIC (S. aureus; ATCC29213, strain NSAU001, wild-type, QC, ATCC 29213): < 16 µg/mL
- MIC (S. aureus; strain NSAU1004, MDR Clinical isolate): < 16 µg/mL
- Activity (MIC) (S. aureus; strain NSAU1015, MDR Clinical isolate): + (MIC threshold for positive activity (+) is ≤16 μg/mL)
- Activity (MIC) (S. aureus; strain NSAU1023, MDR Clinical isolate): + (MIC threshold for positive activity (+) is ≤16 μg/mL)
- Activity (MIC) (S. aureus; strain NSAU1063, MDR Clinical isolate): + (MIC threshold for positive activity (+) is ≤16 μg/mL)
- MIC (P. aeruginosa; read-out: Activity (MIC), strain NPAE0006, Efflux KO, Aph(3')-IIb): < 16 µg/mL
- MIC (P. aeruginosa; read-out: Activity (MIC), strain NPAE0010, MexXY over-expressed, Aph(3')-IIb): < 16 µg/mL
- MIC (P. aeruginosa; read-out: Activity (MIC), strain NPAE1288, MDR Clinical isolate): < 16 µg/mL
- MIC (P. aeruginosa; read-out: Activity (MIC), strain NPAE1293, MDR Clinical isolate): < 16 µg/mL
- MIC (P. aeruginosa; read-out: Activity (MIC), strain NPAE1299, MDR Clinical isolate): < 16 µg/mL
- MIC (P. aeruginosa; read-out: Activity (MIC), strain NPAE1302, MDR Clinical isolate): < 16 µg/mL
- MIC (P. aeruginosa; read-out: Activity (MIC), strain NPAE1303, MDR Clinical isolate): < 16 µg/mL
- MIC (P. aeruginosa; read-out: Activity (MIC), strain NPAE1308, MDR Clinical isolate): > 16 µg/mL
- MIC (P. aeruginosa; read-out: Activity (MIC), strain NPAE1310, MDR Clinical isolate): < 16 µg/mL
- MIC (P. aeruginosa; read-out: Activity (MIC), strain NPAE1313, MDR Clinical isolate): < 16 µg/mL
- MIC (P. aeruginosa; read-out: Activity (MIC), strain NPAE1316, MDR Clinical isolate): < 16 µg/mL
- MIC (P. aeruginosa; read-out: Activity (MIC), strain NPAE1323, MDR Clinical isolate): < 16 µg/mL
- MIC (P. aeruginosa; strain NPAE0001, WT Aph(3')-IIb, QC, read-out: Activity (MIC)): < 16 µg/mL
- MIC (P. aeruginosa; strain NPAE0002, WT Aph(3')-IIb, read-out: Activity (MIC)): < 16 µg/mL
- MIC (P. aeruginosa; strain NPAE0359, aph(3')-IIb KO (tetR), read-out: Activity (MIC)): < 16 µg/mL
- MIC (E. cloacae): < 16 µg/mL
- MIC (K. pneumoniae; Klebsiella pneumoniae, strain AKPN1246, MDR Clinical isolate (CDC CRE panel), CDC AR Bank 0139): < 16 µg/mL
- Activity (MIC) (K. pneumoniae; strain AKPN1250, MDR Clinical isolate (CDC CRE panel), CDC AR Bank 0143): + (MIC threshold for positive activity (+) is ≤16 μg/mL)
- Activity (MIC) (K. pneumoniae; strain AKPN1253, MDR Clinical isolate (CDC CRE panel), CDC AR Bank 0148): + (MIC threshold for positive activity (+) is ≤16 μg/mL)
- Activity (MIC) (K. pneumoniae; strain AKPN1255, MDR Clinical isolate (CDC CRE panel), CDC AR Bank 0153): + (MIC threshold for positive activity (+) is ≤16 μg/mL)
- MIC (A. baumannii; read-out: Activity (MIC), strain NABA0007, ΔadeJK efflux): < 16 µg/mL
- MIC (A. baumannii; read-out: Activity (MIC), strain NABA1427, MDR Clinical isolate): < 16 µg/mL
- MIC (A. baumannii; read-out: Activity (MIC), strain NABA1433, MDR Clinical isolate): < 16 µg/mL
- MIC (A. baumannii; read-out: Activity (MIC), strain NABA1434, MDR Clinical isolate): < 16 µg/mL
- MIC (A. baumannii; read-out: Activity (MIC), strain NABA1436, MDR Clinical isolate): < 16 µg/mL
- MIC (A. baumannii; read-out: Activity (MIC), strain NABA1437, MDR Clinical isolate): < 16 µg/mL
- MIC (A. baumannii; read-out: Activity (MIC), strain NABA1438, MDR Clinical isolate): < 16 µg/mL
- MIC (A. baumannii; read-out: Activity (MIC), strain NABA1439, MDR Clinical isolate): < 16 µg/mL
- MIC (A. baumannii; read-out: Activity (MIC), strain NABA1448, MDR Clinical isolate): < 16 µg/mL
- MIC (A. baumannii; read-out: Activity (MIC), strain NABA1449, MDR Clinical isolate): < 16 µg/mL
- MIC (A. baumannii; read-out: Activity (MIC), strain NABA1450, MDR Clinical isolate): < 16 µg/mL
- MIC (A. baumannii; strain NABA0006, WT parent, read-out: Activity (MIC)): < 16 µg/mL
- MIC (A. baumannii; strain NABA0020, AME negative strain, read-out: Activity (MIC)): < 16 µg/mL
- MIC (E. coli; read-out: Activity (MIC), strain AECO1225, MDR Clinical isolate (CDC CRE panel), CDC AR Bank 0118): < 16 µg/mL
- MIC (E. coli; read-out: Activity (MIC), strain AECO1226, MDR Clinical isolate (CDC CRE panel), CDC AR Bank 0119): < 16 µg/mL
- MIC (E. coli; read-out: Activity (MIC), strain AECO1227, MDR Clinical isolate (CDC CRE panel), CDC AR Bank 0128): < 16 µg/mL
- MIC (E. coli; read-out: Activity (MIC), strain NECO0003, ΔtolC): < 16 µg/mL
- MIC (E. coli; read-out: Activity (MIC), strain NECO0245, ArmA): < 16 µg/mL
- MIC (E. coli; strain NECO0001, WT QC, read-out: Activity (MIC)): < 16 µg/mL
- MIC (E. coli; strain NECO0002, WT, read-out: Activity (MIC)): < 16 µg/mL
- MIC (E. coli; strain NECO0243, empty vector, read-out: Activity (MIC)): < 16 µg/mL
- MIC (E. coli; strain NECO0244, AAC(6')-Ib, read-out: Activity (MIC)): < 16 µg/mL
- MIC (E. coli; strain NECO0289, APH(3')-Ia, read-out: Activity (MIC)): < 16 µg/mL
- MIC (E. coli; strain NECO0302, AAC(3)-IIa, read-out: Activity (MIC)): < 16 µg/mL
- MIC (E. coli; strain NECO0350, AAC(2')-I, read-out: Activity (MIC)): < 16 µg/mL
- MIC (E. coli; strain NECO0359, ANT(4')-Ia, read-out: Activity (MIC)): < 16 µg/mL
